According to PubChem BioAssay AID256 (DTP/NCI, 2004):
Where “and” joins values, the source holds several entries; their conditions need not be identical. Equal entries are not always repeated. Toxic doses and inconclusive results are not listed. The calls were made as follows: active = survival T/C of 150% or more; inactive = T/C below 125% in these data.

Test system: CD2F1 mice, L1210 leukemia ip, survival T/C
Assay: NCI In Vivo Anticancer Drug Screen. Data for tumor model L1210 Leukemia (intraperitoneal) in CD2F1 (CDF1) mice
Conditions: higher = longer survival
Procedure, shortened: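 Implant tumor; dose compound or vehicle; measure endpoint in both groups; report treated divided by control.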

[1] = endpoint: mean survival time, dose: 100.0 mg/kg/injection, schedule: Q01DX009 (ip), vehicle: saline
[2] = endpoint: mean survival time, dose: 200.0 mg/kg/injection, schedule: Q01DX009 (ip), vehicle: saline
[3] = endpoint: mean survival time, dose: 100.0 mg/kg/injection, schedule: Q01DX009 (ip), vehicle: saline with Tween-80
[4] = endpoint: mean survival time, dose: 200.0 mg/kg/injection, schedule: Q01DX009 (ip), vehicle: saline with Tween-80
[5] = endpoint: mean survival time, dose: 100.0 mg/kg/injection, schedule: Q01DX001 (ip), vehicle: saline with Tween-80
[6] = endpoint: mean survival time, dose: 200.0 mg/kg/injection, schedule: Q01DX001 (ip), vehicle: saline with Tween-80
[7] = endpoint: mean survival time, dose: 12.5 mg/kg/injection, schedule: Q01DX009 (ip), vehicle: saline with Tween-80
[8] = endpoint: mean survival time, dose: 25.0 mg/kg/injection, schedule: Q01DX009 (ip), vehicle: saline with Tween-80
[9] = endpoint: mean survival time, dose: 12.5 mg/kg/injection, schedule: Q01DX009 (ip), vehicle: saline
[10] = endpoint: mean survival time, dose: 25.0 mg/kg/injection, schedule: Q01DX009 (ip), vehicle: saline
[11] = endpoint: mean survival time, dose: 50.0 mg/kg/injection, schedule: Q01DX009 (ip), vehicle: saline
[12] = endpoint: mean survival time, dose: 400.0 mg/kg/injection, schedule: Q01DX009 (ip), vehicle: saline with Tween-80
[13] = endpoint: mean survival time, dose: 200.0 mg/kg/injection, schedule: Q04DX002 (ip), vehicle: saline with Tween-80
[14] = endpoint: mean survival time, dose: 100.0 mg/kg/injection, schedule: Q04DX003 (ip), vehicle: saline with Tween-80
[15] = endpoint: mean survival time, dose: 200.0 mg/kg/injection, schedule: Q04DX003 (ip), vehicle: saline with Tween-80
[16] = endpoint: mean survival time, dose: 400.0 mg/kg/injection, schedule: Q04DX003 (ip), vehicle: saline with Tween-80
[17] = endpoint: mean survival time, dose: 100.0 mg/kg/injection, schedule: Q04DX002 (ip), vehicle: saline with Tween-80
[18] = endpoint: mean survival time, dose: 400.0 mg/kg/injection, schedule: Q04DX002 (ip), vehicle: saline with Tween-80

Measured: T/C

O=C1CCC2(Cc3ccccc3C2=O)O1 (centres undefined)
inactive: endpoint: mean survival time, dose: 75.0 mg/kg/injection, schedule: Q01DX001 (ip), vehicle: saline 94 % of control | endpoint: mean survival time, dose: 150.0 mg/kg/injection, schedule: Q01DX001 (ip), vehicle: saline 96 % of control | endpoint: mean survival time, dose: 300.0 mg/kg/injection, schedule: Q01DX001 (ip), vehicle: saline 94 % of control

OC1(C2(O)c3ccccc3Oc3ccccc32)c2ccccc2Oc2ccccc21
inactive: [1] 99 % of control | [2] 97 % of control

CSc1cc(=O)n2c3ccccc3c3ccnc1c32
inactive: endpoint: mean survival time, dose: 1.25 mg/kg/injection, schedule: Q01DX009 (ip), vehicle: saline with Tween-80 103 % of control | endpoint: mean survival time, dose: 2.5 mg/kg/injection, schedule: Q01DX009 (ip), vehicle: saline with Tween-80 95 % of control | endpoint: mean survival time, dose: 5.0 mg/kg/injection, schedule: Q01DX009 (ip), vehicle: saline with Tween-80 97 % of control | endpoint: mean survival time, dose: 10.0 mg/kg/injection, schedule: Q01DX009 (ip), vehicle: saline with Tween-80 110 % of control

O=C(CNC(=O)Nc1cccc([N+](=O)[O-])c1)NNC(=O)Nc1ccc(Cl)c([N+](=O)[O-])c1
inactive: [3] 91 % of control | [4] 87 % of control

NNc1ccnc2[nH]ncc12
inactive: endpoint: mean survival time, dose: 6.25 mg/kg/injection, schedule: Q01DX005 (ip), vehicle: saline with Tween-80 106 % of control | endpoint: mean survival time, dose: 12.5 mg/kg/injection, schedule: Q01DX005 (ip), vehicle: saline with Tween-80 103 % of control | endpoint: mean survival time, dose: 25.0 mg/kg/injection, schedule: Q01DX005 (ip), vehicle: saline with Tween-80 101 % of control

CCOc1cccc(Cc2cn(Cc3cccc(NC(=O)Nc4cccc(S(=O)(=O)F)c4)c3)c(=O)[nH]c2=O)c1
inactive: [5] 95 % of control | [6] 95 % of control | endpoint: mean survival time, dose: 400.0 mg/kg/injection, schedule: Q01DX001 (ip), vehicle: saline with Tween-80 94 % of control

O=C1C2CC=CCC2C(=O)N1SC(Cl)(Cl)Cl (centres undefined)
inactive: endpoint: mean survival time, dose: 0.78 mg/kg/injection, schedule: Q01DX009 (ip), vehicle: saline with Tween-80 97 % of control | endpoint: mean survival time, dose: 1.56 mg/kg/injection, schedule: Q01DX009 (ip), vehicle: saline with Tween-80 97 % of control | endpoint: mean survival time, dose: 3.12 mg/kg/injection, schedule: Q01DX009 (ip), vehicle: saline with Tween-80 97 % of control | endpoint: mean survival time, dose: 6.25 mg/kg/injection, schedule: Q01DX009 (ip), vehicle: saline with Tween-80 93 % of control | [7] 101 % of control | [8] 89 % of control

CC1(C)OC1CS(=O)c1ccccc1 (centres undefined)
inactive: [7] 95 % of control | [9] 98 % of control | [8] 98 % of control | [10] 93 % of control | endpoint: mean survival time, dose: 50.0 mg/kg/injection, schedule: Q01DX009 (ip), vehicle: saline with Tween-80 95 % of control | [11] 101 % of control | [3] 95 % of control | [1] 95 % of control | [4] 98 % of control | [2] 105 % of control | [12] 93 % of control | endpoint: mean survival time, dose: 400.0 mg/kg/injection, schedule: Q01DX009 (ip), vehicle: saline 98 % of control

CCC[P+](c1ccccc1)(c1ccccc1)c1ccccc1
inactive: endpoint: mean survival time, dose: 3.13 mg/kg/injection, schedule: Q01DX009 (ip), vehicle: saline 106 % of control | endpoint: mean survival time, dose: 6.25 mg/kg/injection, schedule: Q01DX009 (ip), vehicle: saline 113 % of control | [9] 120 % of control | [10] 117 % of control | endpoint: mean survival time, dose: 75.0 mg/kg/injection, schedule: Q01DX001 (ip), vehicle: other 93 % of control

CN(C)CC(N)C(=O)O (centres undefined)
inactive: endpoint: mean survival time, dose: 50.0 mg/kg/injection, schedule: Q04DX002 (ip), vehicle: saline 89 % of control | endpoint: mean survival time, dose: 100.0 mg/kg/injection, schedule: Q04DX002 (ip), vehicle: saline 92 % of control

CCN(CC)Cc1cc(Nc2ncnc3[nH]c(C)c(C)c23)ccc1O
inactive: endpoint: mean survival time, dose: 50.0 mg/kg/injection, schedule: Q04DX002 (ip), vehicle: saline with Tween-80 89 % of control | [5] 97 % of control | [6] 100 % of control | [13] 92 % of control

Nc1cccc2cnccc12
inactive: [3] 100 % of control | [14] 91 % of control | [4] 98 % of control | [15] 93 % of control | [16] 96 % of control

[Cl][Pt+2][Cl].[NH-]CC(=O)O.[NH-]CC(=O)O
inactive: [9] 96 % of control | [10] 101 % of control | [11] 108 % of control | [1] 98 % of control | [2] 96 % of control

CCN1CCS/C1=C\C=C\C1=[N+](CC)CCS1
inactive: endpoint: mean survival time, dose: 1.25 mg/kg/injection, schedule: Q01DX001 (ip), vehicle: other 98 % of control | endpoint: mean survival time, dose: 2.5 mg/kg/injection, schedule: Q01DX001 (ip), vehicle: other 101 % of control

CCc1cccc([N+](=O)[O-])c1CC
inactive: endpoint: mean survival time, dose: 25.0 mg/kg/injection, schedule: Q04DX003 (ip), vehicle: saline with Tween-80 97 % of control | endpoint: mean survival time, dose: 50.0 mg/kg/injection, schedule: Q04DX003 (ip), vehicle: saline with Tween-80 95 % of control | [14] 100 % of control and 105 % of control

O=C1c2c(O)ccc(Cl)c2C(=O)c2c(O)ccc(Cl)c21
inactive: [3] 95 % of control | [4] 93 % of control | [12] 97 % of control

CC1(C)C=CC(=O)c2ccccc21
inactive: [14] 94 % of control | [15] 100 % of control | [16] 101 % of control

O=C1c2ccccc2CCC1(Br)C(Br)c1ccccc1 (centres undefined)
inactive: endpoint: mean survival time, dose: 100.0 mg/kg/injection, schedule: Q01DX009 (ip), vehicle: Klucel (hydroxypropylcellulose) (HPC) 100 % of control | endpoint: mean survival time, dose: 200.0 mg/kg/injection, schedule: Q01DX009 (ip), vehicle: Klucel (hydroxypropylcellulose) (HPC) 100 % of control | endpoint: mean survival time, dose: 400.0 mg/kg/injection, schedule: Q01DX009 (ip), vehicle: Klucel (hydroxypropylcellulose) (HPC) 96 % of control

O=C1C(=O)c2cccnc2C(NCc2ccccc2)=C1Cl
inactive: endpoint: mean survival time, dose: 75.0 mg/kg/injection, schedule: Q04DX003 (ip), vehicle: saline 98 % of control | endpoint: mean survival time, dose: 150.0 mg/kg/injection, schedule: Q04DX003 (ip), vehicle: saline 101 % of control | endpoint: mean survival time, dose: 300.0 mg/kg/injection, schedule: Q04DX003 (ip), vehicle: saline 96 % of control

C1CC[N-]CC1.C1CC[N-]CC1.CC(=O)CC(C)=O.CC(=O)CC(C)=O.[Ni+2]
inactive: endpoint: mean survival time, dose: 10.0 mg/kg/injection, schedule: Q04DX003 (ip), vehicle: saline 94 % of control | endpoint: mean survival time, dose: 20.0 mg/kg/injection, schedule: Q04DX003 (ip), vehicle: saline 96 % of control | endpoint: mean survival time, dose: 40.0 mg/kg/injection, schedule: Q04DX003 (ip), vehicle: saline 104 % of control

O=C1c2ccccc2C(=O)c2c(O)c(CCCN3C(=O)c4ccccc4C3=O)cc(O)c21
inactive: endpoint: mean survival time, dose: 12.5 mg/kg/injection, schedule: Q01DX009 (ip), vehicle: other 89 % of control | endpoint: mean survival time, dose: 25.0 mg/kg/injection, schedule: Q01DX009 (ip), vehicle: other 87 % of control | endpoint: mean survival time, dose: 50.0 mg/kg/injection, schedule: Q01DX009 (ip), vehicle: other 87 % of control | endpoint: mean survival time, dose: 100.0 mg/kg/injection, schedule: Q01DX009 (ip), vehicle: other 89 % of control | endpoint: mean survival time, dose: 200.0 mg/kg/injection, schedule: Q01DX009 (ip), vehicle: other 97 % of control

COc1ccc(NC(=O)Oc2ccc(Cl)cc2C)cc1
inactive: [17] 91 % of control | [13] 94 % of control | [18] 91 % of control

CCOC(=O)c1[nH]c2cccc3c2c1CC(Br)C3=O (centres undefined)
inactive: endpoint: median survival time, dose: 12.5 mg/kg/injection, schedule: Q01DX009 (ip), vehicle: saline with Tween-80 120 % of control | endpoint: median survival time, dose: 25.0 mg/kg/injection, schedule: Q01DX009 (ip), vehicle: saline with Tween-80 109 % of control | endpoint: median survival time, dose: 50.0 mg/kg/injection, schedule: Q01DX009 (ip), vehicle: saline with Tween-80 109 % of control | endpoint: median survival time, dose: 100.0 mg/kg/injection, schedule: Q01DX009 (ip), vehicle: saline with Tween-80 107 % of control

O=C(OCCOC(=O)N1CCOCC1)N1CCOCC1
inactive: [17] 101 % of control | [13] 97 % of control | [18] 101 % of control

CN(C)c1ccc2c(NCCCCCCNc3ccnc4cc(N(C)C)ccc34)ccnc2c1
inactive: endpoint: median survival time, dose: 1.56 mg/kg/injection, schedule: Q01DX009 (ip), vehicle: distilled water + Tween-80 + alcohol 105 % of control | endpoint: median survival time, dose: 3.12 mg/kg/injection, schedule: Q01DX009 (ip), vehicle: distilled water + Tween-80 + alcohol 104 % of control | endpoint: median survival time, dose: 6.25 mg/kg/injection, schedule: Q01DX009 (ip), vehicle: distilled water + Tween-80 + alcohol 111 % of control
